Source: paper PMC10113271, “Rational peptide design for inhibition of the KIX–MLL interaction” (Scientific Reports, 2023)
Where a SMILES comes first, the peptide text is derived from it. Where no end group is shown, it is not given here.

Biological target: T1, KIX (Mus musculus, UniProt P45481)
T1 construct: The DNA fragment of KIX (residues 586–672 of mouse CBP); 6xHis-tag with thrombin cleavage site (N); made in house; host or cells: E. coli BL21(DE3)pLysS
Assay: KIX binding by isothermal titration calorimetry (ITC)
Settings: 30 °C; for − TΔS: entropy term upon KIX binding, pH 7.0, ΔS=(ΔH-ΔG)/T, mean ± standard error of triplicate or more; for N (stoichiometry of binding): pH 7.0, mean ± standard error of triplicate or more
Procedure: For the expression of MLL TAD, E. coli BL21(DE3) competent cells were transformed with the plasmid and cultivated at 37 °C in 2 × YT liquid medium supplemented with ampicillin. When an optical density at 600 nm (OD600) of the cell culture reached 0.7–0.8, 1 mM isopropyl β-D-1-thiogalactopyranoside was added to induce protein expression. After 4 h of cultivation, the cells were harvested by centrifugation. The E. coli cell pellet was suspended with buffer HP (50 mM sodium phosphate [pH 7.4], 300 mM NaCl, 10 mM imidazole, and 6 M guanidine hydrochloride). The sonicated lysate was centrifuged at 4 °C, and the supernatant was filtered using a membrane filter and applied to a gravity column (50 mL) containing 5 mL of nickel-nitrilotriacetic acid (Ni–NTA) resin (Qiagen, Hilden, Germany). The column was washed with buffer HP and buffer AP (50 mM sodium phosphate [pH 7.4], 300 mM NaCl, and 10 mM imidazole) to remove impurities. To elute His-tag–GB1–MLL TAD for ITC and SPR measurements, 40 mL of buffer EP (50 mM sodium phosphate [pH 7.4], 300 mM NaCl, and 250 mM imidazole) was added to the column. […] Thus, His-tag–GB1–MLL TAD was used in the ITC measurements, with the exception of the four mutants (I2849L, D2851L, K2855R, and T2857I). To obtain the MLL TAD peptide without His-tag–GB1 for CD measurements, we washed the column, to which the His-tag–GB1–MLL TAD was attached, with buffer TP (50 mM sodium phosphate [pH 7.4] and 300 mM NaCl), added 150 units of thrombin to the column for digestion of the His-tag–GB1, and eluted the MLL TAD peptide with buffer TP. After Ni–NTA column purification, anion exchange chromatography was performed to further purify the aforementioned four mutants without His-tag–GB1 using the AKTAprime plus chromatography system (Cytiva, Marlborough, MA, USA; 10 mM sodium phosphate [pH 6.0] and 0–1 M NaCl). Due to the fact that the CD spectra of the four mutants were unchanged before and after the anion exchange chromatography, we omitted this procedure for other mutants.
Expression and purification of the KIX protein was performed in the same way as MLL, except that E. coli BL21(DE3)pLysS competent cells and 2 × YT liquid medium with ampicillin and chloramphenicol were used. After Ni–NTA column purification, gel filtration chromatography was performed using a Superdex 200 pg column (Cytiva) and the ITC buffer (20 mM Tris–acetate [pH 7.0] and 50 mM NaCl).
ITC measurements were performed using MicroCal iTC200 (Malvern Panalytical Ltd., Malvern, United Kingdom) at 30 °C. Samples were sufficiently dialyzed with the ITC buffer before measurements. The 600 μM MLL solution was titrated into the cell containing 45 µM KIX. The data were analyzed using the Origin 7 software (OriginLab Corp., Northampton, MA, USA; https://www.originlab.com) to obtain the Kd (M), ΔH (kcal/mol), and stoichiometry of binding, N. The ΔG (kcal/mol) and ΔS (kcal/mol/K) were obtained as follows:2 ΔG=-RTln1/Kd 3 ΔS=ΔH-ΔG/T where R is the gas constant, and T is the temperature.

T1 sequence (P45481 586-672): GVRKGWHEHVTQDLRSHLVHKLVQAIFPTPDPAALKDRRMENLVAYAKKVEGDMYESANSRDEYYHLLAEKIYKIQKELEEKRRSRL

N (stoichiometry of binding)	Compound	− TΔS [kcal/mol]
	T2857F: T2857F mutant of the MLL TAD peptide (GNILPSDIMDFVLKNFPSMQALGESPESY; left off: His6, N-terminal, cleaved | GB1 (B1 domain of Streptococcal protein G), N-terminal, cleaved)	3.2 ± 0.3
	T2857W: T2857W mutant of the MLL TAD peptide, highest KIX affinity ({His6-GB1}-GNILPSDIMDFVLKNWPSMQALGESPESY)	4.4 ± 0.1
	T2857R: T2857R mutant of the MLL TAD peptide ({His6-GB1}-GNILPSDIMDFVLKNRPSMQALGESPESY)	4.9 ± 0.3
0.94 ± 0.02	CC[C@H](C)[C@H](NC(=O)[C@H](CC(=O)O)NC(=O)[C@H](CO)NC(=O)[C@@H]1CCCN1C(=O)[C@H](CC(C)C)NC(=O)[C@@H](NC(=O)[C@H](CC(N)=O)NC(=O)CN)[C@@H](C)CC)C(=O)N[C@@H](CCSC)C(=O)N[C@@H](CC(=O)O)C(=O)N[C@@H](Cc1ccccc1)C(=O)N[C@H](C(=O)N[C@@H](CC(C)C)C(=O)N[C@@H](CCCNC(=N)N)C(=O)N[C@@H](CC(N)=O)C(=O)N[C@H](C(=O)N1CCC[C@H]1C(=O)N[C@@H](CO)C(=O)N[C@@H](CCSC)C(=O)N[C@@H](CCC(N)=O)C(=O)N[C@@H](C)C(=O)N[C@@H](CC(C)C)C(=O)NCC(=O)N[C@@H](CCC(=O)O)C(=O)N[C@@H](CO)C(=O)N1CCC[C@H]1C(=O)N[C@@H](CCC(=O)O)C(=O)N[C@@H](CO)C(=O)N[C@@H](Cc1ccc(O)cc1)C(=O)O)[C@@H](C)O)C(C)C [K2855R] (H-GNILPSDIMDFVLRNTPSMQALGESPESY-OH; N-terminus and C-terminus assumed)	5.7 ± 0.4
1.043 ± 0.003	CC[C@H](C)[C@H](NC(=O)[C@H](CC(=O)O)NC(=O)[C@H](CO)NC(=O)[C@@H]1CCCN1C(=O)[C@H](CC(C)C)NC(=O)[C@@H](NC(=O)[C@H](CC(N)=O)NC(=O)CN)[C@@H](C)CC)C(=O)N[C@@H](CCSC)C(=O)N[C@@H](CC(=O)O)C(=O)N[C@@H](Cc1ccccc1)C(=O)N[C@H](C(=O)N[C@@H](CC(C)C)C(=O)N[C@@H](CCCCN)C(=O)N[C@@H](CC(N)=O)C(=O)N[C@H](C(=O)N1CCC[C@H]1C(=O)N[C@@H](CO)C(=O)N[C@@H](CCSC)C(=O)N[C@@H](CCC(N)=O)C(=O)N[C@@H](C)C(=O)N[C@@H](CC(C)C)C(=O)NCC(=O)N[C@@H](CCC(=O)O)C(=O)N[C@@H](CO)C(=O)N1CCC[C@H]1C(=O)N[C@@H](CCC(=O)O)C(=O)N[C@@H](CO)C(=O)N[C@@H](Cc1ccc(O)cc1)C(=O)O)[C@@H](C)CC)C(C)C [T2857I] (H-GNILPSDIMDFVLKNIPSMQALGESPESY-OH; N-terminus and C-terminus assumed)	2.21 ± 0.08
0.947 ± 0.008	CC[C@H](C)[C@H](NC(=O)[C@H](CC(N)=O)NC(=O)CN)C(=O)N[C@@H](CC(C)C)C(=O)N1CCC[C@H]1C(=O)N[C@@H](CO)C(=O)N[C@@H](CC(=O)O)C(=O)N[C@@H](CC(C)C)C(=O)N[C@@H](CCSC)C(=O)N[C@@H](CC(=O)O)C(=O)N[C@@H](Cc1ccccc1)C(=O)N[C@H](C(=O)N[C@@H](CC(C)C)C(=O)N[C@@H](CCCCN)C(=O)N[C@@H](CC(N)=O)C(=O)N[C@H](C(=O)N1CCC[C@H]1C(=O)N[C@@H](CO)C(=O)N[C@@H](CCSC)C(=O)N[C@@H](CCC(N)=O)C(=O)N[C@@H](C)C(=O)N[C@@H](CC(C)C)C(=O)NCC(=O)N[C@@H](CCC(=O)O)C(=O)N[C@@H](CO)C(=O)N1CCC[C@H]1C(=O)N[C@@H](CCC(=O)O)C(=O)N[C@@H](CO)C(=O)N[C@@H](Cc1ccc(O)cc1)C(=O)O)[C@@H](C)O)C(C)C [I2849L] (H-GNILPSDLMDFVLKNTPSMQALGESPESY-OH; N-terminus and C-terminus assumed)	4.6 ± 0.2
	T2857A: T2857A mutant of the MLL TAD peptide (GNILPSDIMDFVLKNAPSMQALGESPESY; left off: His6, N-terminal, cleaved | GB1 (B1 domain of Streptococcal protein G), N-terminal, cleaved)	4.0 ± 0.2
